Test results as given in ChEMBL document CHEMBL2040782 (Eur J Med Chem, 2012).

Experiments:
Rattus norvegicus = test: Wake promoting activity in EEG/EMG Sprague-Dawley rat model assessed as slow wave sleep and rapid eye movement sleep time at 100 mg/kg, ip measured up to 3 hrs (reference value: 65 +/- 9 mins); assay type: functional; settings: route intraperitoneal
[1] = biological target: Transporter (Rattus norvegicus) (UniProt Q63380); settings: 10 uM
Description: Inhibition of rat NET at 10 uM

[2] = biological target: Sodium-dependent serotonin transporter (Rattus norvegicus) (UniProt P31652); test: Inhibition of rat SERT at 10 uM
Chain of Sodium-dependent serotonin transporter (Rattus norvegicus) (P31652 whole entry): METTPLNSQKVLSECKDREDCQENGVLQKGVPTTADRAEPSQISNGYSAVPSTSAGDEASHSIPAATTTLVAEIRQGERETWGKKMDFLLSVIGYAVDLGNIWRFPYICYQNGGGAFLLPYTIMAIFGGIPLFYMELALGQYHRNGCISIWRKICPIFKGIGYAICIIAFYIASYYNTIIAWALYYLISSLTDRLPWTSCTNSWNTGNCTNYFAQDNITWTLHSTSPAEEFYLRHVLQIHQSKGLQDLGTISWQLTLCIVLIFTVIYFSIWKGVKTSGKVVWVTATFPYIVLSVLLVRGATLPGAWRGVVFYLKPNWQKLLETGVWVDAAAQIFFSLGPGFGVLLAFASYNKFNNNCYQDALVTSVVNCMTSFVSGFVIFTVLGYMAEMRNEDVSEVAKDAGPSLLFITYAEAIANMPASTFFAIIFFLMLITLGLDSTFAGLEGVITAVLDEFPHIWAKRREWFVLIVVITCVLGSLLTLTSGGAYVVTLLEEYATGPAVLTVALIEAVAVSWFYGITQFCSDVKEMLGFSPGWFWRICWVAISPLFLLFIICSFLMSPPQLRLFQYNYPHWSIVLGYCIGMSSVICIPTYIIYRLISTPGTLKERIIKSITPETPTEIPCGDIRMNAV

Cytochrome P450 2C9 = Cytochrome P450 2C9 (Homo sapiens, UniProt P11712); test: Inhibition of CYP2C9; assay type: ADME
CYP1A2 = biological target: T1, CYP1A2 (Homo sapiens, UniProt P05177); test: (§1) Inhibition of CYP1A2 ( at 100 uM); assay type: ADME
T1 sequence (P05177 whole entry): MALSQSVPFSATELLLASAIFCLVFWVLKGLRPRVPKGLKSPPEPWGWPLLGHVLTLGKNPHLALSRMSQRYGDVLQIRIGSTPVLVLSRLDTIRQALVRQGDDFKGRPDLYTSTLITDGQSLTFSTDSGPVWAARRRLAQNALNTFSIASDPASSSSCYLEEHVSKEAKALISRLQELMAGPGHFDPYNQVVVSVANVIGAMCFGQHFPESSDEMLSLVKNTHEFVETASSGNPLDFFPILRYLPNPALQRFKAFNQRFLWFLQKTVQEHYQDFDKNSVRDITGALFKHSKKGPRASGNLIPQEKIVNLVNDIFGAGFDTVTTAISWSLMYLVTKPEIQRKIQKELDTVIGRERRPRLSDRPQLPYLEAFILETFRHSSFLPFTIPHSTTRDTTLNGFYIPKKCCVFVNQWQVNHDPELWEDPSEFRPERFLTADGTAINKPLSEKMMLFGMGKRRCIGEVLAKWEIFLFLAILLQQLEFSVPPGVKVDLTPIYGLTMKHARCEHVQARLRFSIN

Cytochrome P450 3A5 = Cytochrome P450 3A5 (Homo sapiens, UniProt P20815); test: Inhibition of CYP3A5; assay type: ADME
Chain of Cytochrome P450 3A5 (P20815 whole entry): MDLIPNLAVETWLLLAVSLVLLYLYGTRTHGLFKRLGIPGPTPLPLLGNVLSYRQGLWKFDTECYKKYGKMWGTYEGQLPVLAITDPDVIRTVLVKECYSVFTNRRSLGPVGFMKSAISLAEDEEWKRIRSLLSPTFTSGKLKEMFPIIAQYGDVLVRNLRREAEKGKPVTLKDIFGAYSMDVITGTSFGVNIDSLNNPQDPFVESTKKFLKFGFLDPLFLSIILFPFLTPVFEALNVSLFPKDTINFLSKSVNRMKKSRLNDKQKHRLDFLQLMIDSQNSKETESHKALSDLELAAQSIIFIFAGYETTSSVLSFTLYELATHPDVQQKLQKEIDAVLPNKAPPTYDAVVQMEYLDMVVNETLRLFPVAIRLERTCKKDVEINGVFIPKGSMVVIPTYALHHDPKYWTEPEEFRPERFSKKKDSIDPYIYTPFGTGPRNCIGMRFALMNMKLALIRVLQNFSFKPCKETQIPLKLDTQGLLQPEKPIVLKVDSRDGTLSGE

Cytochrome P450 3A4 = Cytochrome P450 3A4 (Homo sapiens, UniProt P08684); test: Inhibition of CYP3A4; assay type: ADME
Chain of Cytochrome P450 3A4 (P08684 whole entry): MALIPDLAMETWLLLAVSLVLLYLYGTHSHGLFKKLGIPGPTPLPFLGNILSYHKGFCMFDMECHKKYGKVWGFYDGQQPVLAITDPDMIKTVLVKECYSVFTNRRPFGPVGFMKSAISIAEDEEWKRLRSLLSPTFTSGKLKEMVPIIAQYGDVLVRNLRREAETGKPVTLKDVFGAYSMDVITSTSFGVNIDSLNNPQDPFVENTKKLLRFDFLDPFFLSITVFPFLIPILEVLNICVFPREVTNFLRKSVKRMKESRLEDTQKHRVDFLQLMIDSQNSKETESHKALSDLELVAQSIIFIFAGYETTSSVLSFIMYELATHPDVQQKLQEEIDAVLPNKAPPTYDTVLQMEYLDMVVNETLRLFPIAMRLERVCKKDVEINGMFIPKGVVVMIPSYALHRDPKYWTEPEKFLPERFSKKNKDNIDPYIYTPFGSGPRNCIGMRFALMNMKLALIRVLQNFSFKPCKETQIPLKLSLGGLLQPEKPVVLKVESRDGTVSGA

Transporter = Transporter (Rattus norvegicus, UniProt Q63380); test: Inhibition of rat NET-mediated norepinephrine reuptake
Chain of Transporter (Q63380 whole entry): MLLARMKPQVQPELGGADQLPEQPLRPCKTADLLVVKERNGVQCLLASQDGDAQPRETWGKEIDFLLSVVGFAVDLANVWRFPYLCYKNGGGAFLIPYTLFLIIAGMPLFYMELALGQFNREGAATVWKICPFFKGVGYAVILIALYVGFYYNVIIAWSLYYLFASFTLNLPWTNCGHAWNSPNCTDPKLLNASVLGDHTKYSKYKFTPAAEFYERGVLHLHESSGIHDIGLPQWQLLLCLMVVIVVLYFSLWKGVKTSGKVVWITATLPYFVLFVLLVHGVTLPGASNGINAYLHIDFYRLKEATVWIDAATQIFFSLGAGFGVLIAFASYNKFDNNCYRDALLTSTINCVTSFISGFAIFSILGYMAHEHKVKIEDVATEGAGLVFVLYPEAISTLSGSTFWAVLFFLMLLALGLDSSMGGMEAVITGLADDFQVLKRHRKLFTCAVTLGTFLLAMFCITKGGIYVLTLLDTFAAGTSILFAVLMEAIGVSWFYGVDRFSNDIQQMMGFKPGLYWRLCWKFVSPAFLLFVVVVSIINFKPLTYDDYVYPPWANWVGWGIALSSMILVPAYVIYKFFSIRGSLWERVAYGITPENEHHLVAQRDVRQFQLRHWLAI

CYP1A1 = biological target: T2, CYP1A1 (Homo sapiens, UniProt P04798); test: (§2) Inhibition of CYP1A1 ( at 100 uM); assay type: ADME
T2 sequence (P04798 whole entry): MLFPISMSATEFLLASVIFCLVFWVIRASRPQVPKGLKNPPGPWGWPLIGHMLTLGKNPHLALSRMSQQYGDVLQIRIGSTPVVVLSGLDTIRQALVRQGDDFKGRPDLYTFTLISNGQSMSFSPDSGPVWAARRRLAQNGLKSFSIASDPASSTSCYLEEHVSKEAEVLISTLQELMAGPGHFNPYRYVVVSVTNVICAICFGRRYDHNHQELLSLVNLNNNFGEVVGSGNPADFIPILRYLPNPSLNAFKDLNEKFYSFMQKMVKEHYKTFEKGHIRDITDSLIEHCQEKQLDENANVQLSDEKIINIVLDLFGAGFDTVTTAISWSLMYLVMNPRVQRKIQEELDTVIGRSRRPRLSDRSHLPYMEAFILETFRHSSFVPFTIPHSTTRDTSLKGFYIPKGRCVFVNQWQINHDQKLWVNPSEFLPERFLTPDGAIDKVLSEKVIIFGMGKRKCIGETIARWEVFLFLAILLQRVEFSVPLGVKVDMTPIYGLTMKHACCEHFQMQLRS

[3] = biological target: T3, Sodium-dependent dopamine transporter (Rattus norvegicus, UniProt P23977); test: Inhibition of rat DAT-mediated dopamine reuptake
T3 sequence (P23977 whole entry): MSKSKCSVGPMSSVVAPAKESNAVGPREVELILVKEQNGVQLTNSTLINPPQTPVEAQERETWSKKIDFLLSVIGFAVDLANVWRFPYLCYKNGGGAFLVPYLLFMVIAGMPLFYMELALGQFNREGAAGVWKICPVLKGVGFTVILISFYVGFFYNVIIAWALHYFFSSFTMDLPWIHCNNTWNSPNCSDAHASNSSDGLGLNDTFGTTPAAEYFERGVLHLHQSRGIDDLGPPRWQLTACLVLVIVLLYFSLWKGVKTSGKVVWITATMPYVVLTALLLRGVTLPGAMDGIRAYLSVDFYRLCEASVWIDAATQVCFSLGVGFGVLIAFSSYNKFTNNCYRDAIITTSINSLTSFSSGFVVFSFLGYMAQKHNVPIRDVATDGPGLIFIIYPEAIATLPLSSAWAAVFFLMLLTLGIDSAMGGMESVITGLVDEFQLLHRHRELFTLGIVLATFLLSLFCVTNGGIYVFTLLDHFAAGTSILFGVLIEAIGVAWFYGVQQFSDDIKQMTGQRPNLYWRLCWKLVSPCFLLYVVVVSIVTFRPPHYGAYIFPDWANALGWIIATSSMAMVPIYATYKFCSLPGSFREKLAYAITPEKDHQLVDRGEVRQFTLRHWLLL

Cytochrome P450 2D6 = Cytochrome P450 2D6 (Homo sapiens, UniProt P10635); test: Inhibition of CYP2D6; assay type: ADME
Chain of Cytochrome P450 2D6 (P10635 whole entry): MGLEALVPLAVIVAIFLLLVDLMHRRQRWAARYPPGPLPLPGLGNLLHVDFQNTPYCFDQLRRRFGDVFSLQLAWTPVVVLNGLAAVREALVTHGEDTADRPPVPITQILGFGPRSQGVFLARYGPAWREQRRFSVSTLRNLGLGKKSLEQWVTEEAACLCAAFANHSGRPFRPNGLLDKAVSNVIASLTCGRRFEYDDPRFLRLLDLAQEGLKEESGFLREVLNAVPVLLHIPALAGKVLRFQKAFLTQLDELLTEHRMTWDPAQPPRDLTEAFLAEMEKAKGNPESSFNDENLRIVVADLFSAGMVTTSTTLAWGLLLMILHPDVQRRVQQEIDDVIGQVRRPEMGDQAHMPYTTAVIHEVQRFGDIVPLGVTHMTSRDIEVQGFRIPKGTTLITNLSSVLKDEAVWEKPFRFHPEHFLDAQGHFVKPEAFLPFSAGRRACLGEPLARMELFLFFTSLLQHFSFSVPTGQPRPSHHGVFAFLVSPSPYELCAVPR

Cytochrome P450 2C19 = Cytochrome P450 2C19 (Homo sapiens, UniProt P33261); test: Inhibition of CYP2C19; assay type: ADME
Chain of Cytochrome P450 2C19 (P33261 whole entry): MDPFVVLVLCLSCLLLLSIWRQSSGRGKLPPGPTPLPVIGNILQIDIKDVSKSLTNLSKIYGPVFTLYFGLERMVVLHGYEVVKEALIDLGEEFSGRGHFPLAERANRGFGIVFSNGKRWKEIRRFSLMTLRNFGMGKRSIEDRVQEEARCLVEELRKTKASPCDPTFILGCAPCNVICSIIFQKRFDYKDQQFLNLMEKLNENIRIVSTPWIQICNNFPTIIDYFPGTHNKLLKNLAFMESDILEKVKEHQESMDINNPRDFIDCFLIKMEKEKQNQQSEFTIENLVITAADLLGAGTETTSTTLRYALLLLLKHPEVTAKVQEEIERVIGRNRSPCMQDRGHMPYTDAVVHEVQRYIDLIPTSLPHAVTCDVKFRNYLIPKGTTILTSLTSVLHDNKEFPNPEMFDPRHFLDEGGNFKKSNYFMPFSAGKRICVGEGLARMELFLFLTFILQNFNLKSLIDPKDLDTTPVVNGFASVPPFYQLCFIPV

[4] = biological target: Sodium-dependent serotonin transporter (Rattus norvegicus, UniProt P31652); test: Inhibition of rat SERT-mediated serotonin reuptake
Chain of Sodium-dependent serotonin transporter (P31652 whole entry): as the sequence (P31652 whole entry) above

[5] = biological target: T3, Sodium-dependent dopamine transporter; test: Inhibition of rat DAT
CYP2D6 = CYP2D6 (Homo sapiens, UniProt P10635); test: Inhibition of CYP2D6 at 10 uM; assay type: ADME
Chain of CYP2D6 (P10635 whole entry): as the sequence (P10635 whole entry) above

CYP3A5 = CYP3A5 (Homo sapiens, UniProt P20815); test: Inhibition of CYP3A5 at 10 uM; assay type: ADME
Chain of CYP3A5 (P20815 whole entry): as the sequence (P20815 whole entry) above

CYP3A4 = CYP3A4 (Homo sapiens, UniProt P08684); test: Inhibition of CYP3A4 at 10 uM; assay type: ADME
Chain of CYP3A4 (P08684 whole entry): as the sequence (P08684 whole entry) above

Cytochrome P450 1A2 = biological target: T4, Cytochrome P450 1A2 (Homo sapiens, UniProt P05177); test: as §1; assay type: ADME; settings: 100 µM
T4 sequence (P05177 whole entry): T1 sequence (P05177 whole entry)

Cytochrome P450 1A1 = biological target: T5, Cytochrome P450 1A1 (Homo sapiens, UniProt P04798); test: as §2; assay type: ADME; settings: 100 µM
T5 sequence (P04798 whole entry): T2 sequence (P04798 whole entry)

Chain of Transporter (Rattus norvegicus) (Q63380 as listed by the source): as the sequence (Q63380 whole entry) above

For `NC(=O)C[S+]([O-])Cc1ccccc1Oc1cc(Cl)cc(Cl)c1` (racemic), which Time (Rattus norvegicus) is on record?
Its Time is 117 min.

Which results are given for `NC(=O)C[S+]([O-])Cc1ccccc1Oc1ccc(Cl)c(Cl)c1` (single isomer, unassigned; (+)) [listing 1 of 2 here]?
inhibition [1]: 39%; inhibition [2]: 24%

With `NC(=O)C[S+]([O-])Cc1ccccc1Oc1ccc(Cl)c(Cl)c1` (single isomer, unassigned; (-)) [listing 1 of 2 here] as the compound, how does the inhibition [1] read?
The inhibition was 48%.

And the inhibition [2]?
Its inhibition is 30%.

Which Time (Rattus norvegicus) does the source give for `NC(=O)C[S+]([O-])Cc1ccccc1Oc1ccc(Cl)cc1Cl` (racemic) here?
Its Time is 74 min.

How did the Time (Rattus norvegicus) turn out when `NC(=O)C[S+]([O-])Cc1ccccc1Oc1ccc(Cl)cc1` (racemic) was run?
The Time was 165 min.

Which IC50 (Cytochrome P450 2C9) does the source give for `NC(=O)C[S+]([O-])Cc1ccccc1Oc1ccc(Cl)c(Cl)c1` (single isomer, unassigned; (-)) [listing 2 of 2 here] here?
The IC50 was 216 µM.

And the inhibition at 100 µM (CYP1A2)?
The inhibition at 100 µM was 10%.

What about the IC50 (Cytochrome P450 3A5) of the same compound?
The IC50 was 40 µM.

And the Time (Rattus norvegicus; 100 mg/kg)?
The Time was 168 min.

And the IC50 (Cytochrome P450 3A4)?
The IC50 was 40 µM.

What about the IC50 (Transporter) of the same compound?
Its IC50 is 1300 nM.

And the inhibition at 100 µM (CYP1A1)?
The inhibition at 100 µM was 10%.

And the IC50 [3]?
Its IC50 is 1100 nM.

What about the IC50 (Cytochrome P450 2D6) of the same compound?
Its IC50 is 106 µM.

And the IC50 (Cytochrome P450 2C19)?
Its IC50 is 30 µM.

And the IC50 [4]?
The IC50 was 31 µM.

What about the IC50 [5] of the same compound?
Its IC50 is 200 nM.

With `NC(=O)C[S+]([O-])C(c1ccccc1)c1ccccc1` (stereo unspecified) [MODAFINIL] as the compound, how does the inhibition at 10 µM (CYP2D6) read?
Its inhibition at 10 µM is less than 10%.

And the inhibition at 10 µM (CYP3A5)?
Its inhibition at 10 µM is less than 10%.

What about the Time (Rattus norvegicus) of the same compound?
The Time was 117 min.

And the inhibition at 10 µM (CYP3A4)?
Its inhibition at 10 µM is less than 10%.

With `NC(=O)C[S+]([O-])Cc1ccccc1Oc1cccc(Cl)c1Cl` (racemic) as the compound, how does the Time (Rattus norvegicus) read?
The Time was 120 min.

Which results are given for `NC(=O)C[S+]([O-])Cc1ccccc1Oc1ccc(Cl)c(Cl)c1` (single isomer, unassigned; (+)) [listing 2 of 2 here]?
inhibition (INH) (Cytochrome P450 1A2): 18%; IC50 (Cytochrome P450 3A5): 32 µM; Time (Rattus norvegicus; 100 mg/kg): 167 min; IC50 (Cytochrome P450 3A4): 32 µM; IC50 (Transporter): 3100 nM; inhibition (INH) (Cytochrome P450 1A1): 18%; IC50 [3]: 1100 nM; IC50 (Cytochrome P450 2D6): 89 µM; IC50 (Cytochrome P450 2C19): 20 µM; IC50 [4]: 33 µM; IC50 [5]: 900 nM

Which Time (Rattus norvegicus) does the source give for `NC(=O)C[S+]([O-])Cc1ccc(Oc2ccc(Cl)c(Cl)c2)cc1` (stereo unspecified) here?
Its Time is 88 min.

With `NC(=O)C[S+]([O-])Cc1ccccc1Oc1ccc2ccccc2c1` (racemic) as the compound, how does the Time (Rattus norvegicus) read?
The Time was 131 min.

For `NC(=O)C[S+]([O-])Cc1ccccc1Oc1ccc(Cl)c(Cl)c1` (racemic), which Time (Rattus norvegicus; 100 mg/kg) is on record?
Its Time is 180 min.

With `NC(=O)C[S+]([O-])Cc1ccccc1Oc1ccc(F)cc1` (racemic) as the compound, how does the Time (Rattus norvegicus) read?
Its Time is 123 min.

`NC(=O)C[S+]([O-])Cc1ccccc1Oc1ccc(F)c(Cl)c1` (racemic) was tested. Which Time (Rattus norvegicus) did it give?
Its Time is 160 min.

With `NC(=O)C[S+]([O-])Cc1ccccc1Oc1ccc(Cl)c(F)c1` (racemic) as the compound, how does the Time (Rattus norvegicus) read?
The Time was 176 min.
